Results as given in US10968266B2, “GIP peptide analogues” (University of Copenhagen, priority 2014, dated 2021).

Legend:
human GIP receptor [1] = target: T1, human GIP receptor (Homo sapiens, UniProt P48546); test: cAMP accumulation assay (agonism, antagonism, Schild analysis), COS-7 cells transfected with human GIP receptor (Example 7); type: cell-based; conditions: for IC50: inhibition of GIP(1-42) at 50-80% of max receptor activation; for Slope of Schild plot: GIP(1-42) dose-response curves with fixed antagonist concentrations
T1 construct: host or cells: COS-7 cells, transient transfection (calcium phosphate precipitation), pCMV-Script vector
T1 sequence (P48546 22-466): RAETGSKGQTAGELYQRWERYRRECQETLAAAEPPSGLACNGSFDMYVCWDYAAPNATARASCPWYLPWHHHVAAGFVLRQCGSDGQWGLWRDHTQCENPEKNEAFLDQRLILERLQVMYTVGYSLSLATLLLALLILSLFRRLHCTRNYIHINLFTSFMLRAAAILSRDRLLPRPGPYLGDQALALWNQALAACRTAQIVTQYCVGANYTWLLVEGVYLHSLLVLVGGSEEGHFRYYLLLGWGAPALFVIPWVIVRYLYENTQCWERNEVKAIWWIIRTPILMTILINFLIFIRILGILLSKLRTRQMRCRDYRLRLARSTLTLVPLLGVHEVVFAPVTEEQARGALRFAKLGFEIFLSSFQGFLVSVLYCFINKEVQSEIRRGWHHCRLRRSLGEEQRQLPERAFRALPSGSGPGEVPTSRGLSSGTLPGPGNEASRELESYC
Description: COS-7 cells were grown in 10% CO2 and at 37° C. in Dulbecco's modified Eagle's medium 1885 supplemented with 10% fetal bovine serum, 2 mM glutamine, 180 units/ml penicillin, and 45 µg/ml streptomycin. Transfection of COS-7 cells was performed using the calcium phosphate precipitation method with chloroquine addition as previously described (Kissow et al., 2012).
Two days after transfection the cells were washed once with HEPES buffered saline (HBS) and incubated with HBS and 0.5 mM 3-isobutyl-1-methylxanthine (IBMX) for 30 minutes at 37° C. […] After ligand incubation, the HitHunter™ cAMP XS assay (an enzyme fragment complementation-based assay, DiscoveRx, Birmingham, United Kingdom) was carried out according to the manufacturer's instructions. All experiments were made in duplicates, and repeated at least three times. Luminescence was measured by Perkin Elmer™ EnVision 2104 Multilabled reader (Skovlunde, Danmark). In brief, the cells were lysed in the wells, the enzyme fragment-cAMP-antibody, an enzyme fragment and the enzyme substrates were added followed by 1 hour incubation at room temperature on shaker tray. The other enzyme fragment was added to the wells and incubated for 4 hours on shaker tray followed by measurements of luminescence. The ligand-induced cAMP competed with the binding of antibody to the first enzyme fragment and left the two fragments to fuse. The enzyme complex hydrolyzed the substrates and yielded luminescence. The number “n” refers to individual experiments with separate transfections although from same cell line.
IC50, EC50, and Kd/Ki values were determined by nonlinear regression. These, as well as maximal binding capacity (Bmax) values and Schild plot analysis were carried out with the GraphPad Prism 6.0 software (GraphPad, San Diego, Calif., USA) and Microsoft Excel™. Statistical analyses (unpaired t-tests) of two parameters were also performed with GraphPad Prism 6.0. The calculations of Bmax and Ki values were based on the formula for one class of binding sites in homologous competition binding studies and the Cheng Prussoffs formula, respectively (DeBlasi et al., 1989). Kd is the dissociation constant determined by homologous receptor binding. […] Schild plots were performed with log (DR-1) (ordinate) and log(antagonist concentration) (abscissa) to estimate the slopes and Ki values (Lazareno and Birdsall, 1993).

human GIP receptor [2] = target: T1, human GIP receptor; test: Competitive binding assay with 125I-labelled GIP radioligands, COS-7 cells transfected with human GIP receptor (Example 7); conditions: radioligand 125I-GIP(1-42); relative to GIP(1-30)NH2
Description: Transfection of COS-7 cells was performed using the calcium phosphate precipitation method with chloroquine addition as previously described (Kissow et al., 2012). […] Nonspecific binding was determined as the binding of radioligand to untransfected cells. All determinations were made in duplicates, and all experiments repeated at least three times. The samples were analyzed for radioactivity using a Wallac Wizard 1470 Gamma Counter (GMI Inc., Minnesota, USA). The number “n” refers to individual experiments with separate transfections although from same cell line. IC50, EC50, and Kd/Ki values were determined by nonlinear regression. […] Statistical analyses (unpaired t-tests) of two parameters were also performed with GraphPad Prism 6.0. The calculations of Bmax and Ki values were based on the formula for one class of binding sites in homologous competition binding studies and the Cheng Prussoffs formula, respectively (DeBlasi et al., 1989). Kd is the dissociation constant determined by homologous receptor binding. […] Schild plots were performed with log (DR-1) (ordinate) and log(antagonist concentration) (abscissa) to estimate the slopes and Ki values (Lazareno and Birdsall, 1993).

perfused rat pancreata = test: Somatostatin secretion from isolated perfused rat pancreas; conditions: 1 nM hGIP or 100 nM GIP(3-30), 7 mM glucose
Description: Non-fasted rats were anaesthetized with an IP injection of Hypnorm/Dormicum and the pancreas was dissected and perfused in situ. […] All other aortic branches were ligated. The venous effluent was collected for 1 min intervals via an obstructing cannula inserted into the portal vein, and stored at −20° C. until analysis. The flow rate was kept constant at 4 ml/min. The perfusion medium was continuously gassed with a 95% O2/5% CO2 mixture to achieve pH 7.4, and maintained at 37° C. during the entire experiment.
Pancreatic somatostatin concentrations in venous effluent were analysed by RIA. Somatostatin immunoreactivity was determined using antiserum 1758, which was raised in rabbits against synthetic cyclic somatostatin and recognizes both somatostatin-14 and somatostatin-28 [37, 38].

Compound	IC50 (human GIP receptor [1]) [nM]	Competitive binding fold (fold change of GIP(1-30)NH2 affinity) (human GIP receptor [2]) [fold]	Slope of Schild plot (human GIP receptor [1])	Type of antagonism (Schild analysis) (human GIP receptor [1])	Somatostatin secretion induced by the peptide alone (perfused rat pancreata)
CC[C@H](C)[C@H](NC(=O)[C@H](CO)NC(=O)[C@H](Cc1ccc(O)cc1)NC(=O)[C@H](CC(=O)O)NC(=O)[C@@H](N)CO)C(=O)N[C@@H](C)C(=O)N[C@@H](CCSC)C(=O)N[C@@H](CC(=O)O)C(=O)N[C@@H](CCCCN)C(=O)N[C@H](C(=O)N[C@@H](Cc1c[nH]cn1)C(=O)N[C@@H](CCC(N)=O)C(=O)N[C@@H](CCC(N)=O)C(=O)N[C@@H](CC(=O)O)C(=O)N[C@@H](Cc1ccccc1)C(=O)N[C@H](C(=O)N[C@@H](CC(N)=O)C(=O)N[C@@H](Cc1c[nH]c2ccccc12)C(=O)N[C@@H](CC(C)C)C(=O)N[C@@H](CC(C)C)C(=O)N[C@@H](C)C(=O)N[C@@H](CCC(N)=O)C(=O)N[C@@H](CCCCN)C(N)=O)C(C)C)[C@@H](C)CC [GIP(8-30)NH2]	133	89			
CC[C@H](C)[C@H](NC(=O)[C@H](CO)NC(=O)[C@H](Cc1ccc(O)cc1)NC(=O)[C@H](CC(=O)O)NC(=O)[C@H](CO)NC(=O)[C@@H](NC(=O)[C@H](Cc1ccccc1)NC(=O)[C@@H](NC(=O)CN)[C@@H](C)O)[C@@H](C)CC)C(=O)N[C@@H](C)C(=O)N[C@@H](CCSC)C(=O)N[C@@H](CC(=O)O)C(=O)N[C@@H](CCCCN)C(=O)N[C@H](C(=O)N[C@@H](Cc1c[nH]cn1)C(=O)N[C@@H](CCC(N)=O)C(=O)N[C@@H](CCC(N)=O)C(=O)N[C@@H](CC(=O)O)C(=O)N[C@@H](Cc1ccccc1)C(=O)N[C@H](C(=O)N[C@@H](CC(N)=O)C(=O)N[C@@H](Cc1c[nH]c2ccccc12)C(=O)N[C@@H](CC(C)C)C(=O)N[C@@H](CC(C)C)C(=O)N[C@@H](C)C(=O)N[C@@H](CCC(N)=O)C(=O)N[C@@H](CCCCN)C(N)=O)C(C)C)[C@@H](C)CC [GIP(4-30)NH2]	108	24	0.75±0.02		
CC[C@H](C)[C@H](NC(=O)[C@H](CO)NC(=O)[C@H](Cc1ccc(O)cc1)NC(=O)[C@H](CC(=O)O)NC(=O)[C@H](CO)NC(=O)[C@@H](NC(=O)[C@H](Cc1ccccc1)NC(=O)[C@@H](N)[C@@H](C)O)[C@@H](C)CC)C(=O)N[C@@H](C)C(=O)N[C@@H](CCSC)C(=O)N[C@@H](CC(=O)O)C(=O)N[C@@H](CCCCN)C(=O)N[C@H](C(=O)N[C@@H](Cc1c[nH]cn1)C(=O)N[C@@H](CCC(N)=O)C(=O)N[C@@H](CCC(N)=O)C(=O)N[C@@H](CC(=O)O)C(=O)N[C@@H](Cc1ccccc1)C(=O)N[C@H](C(=O)N[C@@H](CC(N)=O)C(=O)N[C@@H](Cc1c[nH]c2ccccc12)C(=O)N[C@@H](CC(C)C)C(=O)N[C@@H](CC(C)C)C(=O)N[C@@H](C)C(=O)N[C@@H](CCC(N)=O)C(=O)N[C@@H](CCCCN)C(N)=O)C(C)C)[C@@H](C)CC [GIP(5-30)NH2]	11.9	6.6	1.1±0.04	pure competitive antagonists	
CC[C@H](C)[C@H](NC(=O)[C@H](CO)NC(=O)[C@H](Cc1ccc(O)cc1)NC(=O)[C@H](CC(=O)O)NC(=O)[C@H](CO)NC(=O)[C@@H](NC(=O)[C@H](Cc1ccccc1)NC(=O)[C@@H](NC(=O)CNC(=O)[C@H](CCC(=O)O)NC(=O)[C@H](C)NC(=O)[C@@H](N)Cc1ccc(O)cc1)[C@@H](C)O)[C@@H](C)CC)C(=O)N[C@@H](C)C(=O)N[C@@H](CCSC)C(=O)N[C@@H](CC(=O)O)C(=O)N[C@@H](CCCCN)C(=O)N[C@H](C(=O)N[C@@H](Cc1c[nH]cn1)C(=O)N[C@@H](CCC(N)=O)C(=O)N[C@@H](CCC(N)=O)C(=O)N[C@@H](CC(=O)O)C(=O)N[C@@H](Cc1ccccc1)C(=O)N[C@H](C(=O)N[C@@H](CC(N)=O)C(=O)N[C@@H](Cc1c[nH]c2ccccc12)C(=O)N[C@@H](CC(C)C)C(=O)N[C@@H](CC(C)C)C(=O)N[C@@H](C)C(=O)N[C@@H](CCC(N)=O)C(=O)N[C@@H](CCCCN)C(=O)NCC(=O)N[C@@H](CCCCN)C(=O)N[C@@H](CCCCN)C(=O)N[C@@H](CC(N)=O)C(=O)N[C@@H](CC(=O)O)C(=O)N[C@@H](Cc1c[nH]c2ccccc12)C(=O)N[C@@H](CCCCN)C(=O)N[C@@H](Cc1c[nH]cn1)C(=O)N[C@@H](CC(N)=O)C(=O)N[C@H](C(=O)N[C@H](C(=O)N[C@@H](CCC(N)=O)C(=O)O)[C@@H](C)O)[C@@H](C)CC)C(C)C)[C@@H](C)CC [GIP(1-42)]					robust somatostatin secretion
